We go through one molecule from paper PMC4538536, “In Silico-Based High-Throughput Screen for Discovery of Novel Combinations for Tuberculosis Treatment” (Antimicrobial Agents and Chemotherapy, 2015).

For data set [1], the system named is M. tuberculosis H37Rv. In words: MIC determination, resazurin-based microplate assay. It is filed as cell-based, Mycobacterium tuberculosis. As to conditions: Mycobacterium tuberculosis, single drug.
The test system of data set [2] is M. tuberculosis H37Rv. The data set is described as follows: In vitro bactericidal-effect analysis (CFU enumeration of checkerboard wells). The format is cell-based, Mycobacterium tuberculosis. The note with it: single drug at its MIC (FIC of 1); positive = reduction in CFU. The method, then:
For determining the extent of the bactericidal effect, sample wells which remained blue in the resazurin microtiter assay (REMA) and whose ΣFICs were within the synergistic-to-additive range (<0.7 for doublets and <1.5 for triplets) were plated on Middlebrook 7H10 agar medium and incubated at 37°C for 21 to 28 days, following which bacterial colonies were enumerated to obtain the net reduction in CFU in comparison to the counts for the untreated controls at the start of drug testing, as well as to that achieved when M. tuberculosis was exposed to each drug alone.

Data set [3] is described as follows: In vivo pharmacokinetics in infected mice (plasma, LC-MS/MS). The arrangement: species or system BALB/c mice. As to conditions: mouse; for AUC(0-t) / Cmax: po, steady state, infected mice. The protocol:
The drugs were formulated in 0.5% hydroxypropyl methyl cellulose (HPMC)–0.1% Tween 80 suspensions as 3- or 4-drug combinations. Formulations were prepared by weighing and adding each compound to the bottle, according to the design. Formulation vehicle was added, and the suspension was stirred overnight. Only uniform suspensions were used, while those that precipitated were abandoned. Formulations were prepared every week, and compound stability was estimated at the end of the week. Pharmacokinetics (PK) analysis was performed on infected mice on the 20th day of dosing. Blood samples were collected from each mouse at 0.5, 2, 4, 6, and 24 h after compound administration. Blood samples of about 30 μl were collected from mice in all groups by serial sampling via the saphenous vein into Microvette CB300 tubes (Starstedt, Germany) coated with EDTA, and plasma (10 μl) was separated following centrifugation. Plasma samples were stored at –20°C until analysis using liquid chromatography-tandem mass spectrometry (LC-MS/MS).
A 1-mg/ml stock solution of each compound was prepared in dimethyl sulfoxide (DMSO) for all of the analytes except PZA and LZD, for which the stock solution was 10 mg/ml in DMSO, and RIF, for which the stock solution was prepared in 50% acetonitrile in water. Three different sets of calibration standard (CS) combinations were prepared by 2-fold dilution of the stock solutions. CS set 1 contained analytes CLO, BDQ, PA824, PZA, and SQ109, CS set 2 contained analytes BTZ043, MXF, THI, EMB, and PZA, and CS set 3 contained LZD, INH, RIF, and PZA. A 16-point calibration curve was utilized for all analytes, and the standard curves ranged from 0.0005 to 20 μg/ml except for PZA and LZD, for which the standard curve range was 0.006 to 200 μg/ml. Plasma samples were precipitated by adding chilled acetonitrile (1:10, vol/vol) containing carbamazepine as an internal standard (10 ng/ml). Samples were vortexed and then centrifuged at 4,000 rpm for 30 min at 10°C. The resulting supernatant was mixed with the mobile phase (50% acetonitrile in water with 0.1% formic acid). Five microliters of the sample was injected on to a liquid chromatographic system (Acquity ultraperformance liquid chromatography [UPLC] system, Waters, Milford, MA) coupled to a triple-quadrupole mass spectrometer (Xevo TQ-S; Waters, Milford, MA). Samples were separated on an LC column (ACE 3 C18, 50 by 4.6 mm, 3 μm particle size; Advanced Chromatography Technologies, Aberdeen, Scotland) by isocratic elution with 40 parts of 20 mM ammonium formate containing 0.1% (vol/vol) formic acid and 60 parts of acetonitrile at a flow rate of 0.5 ml/min with a run time of 4 min. Samples were acquired in positive ion mode and detected by multiple reaction monitoring (MRM). The concentrations of the analyte were determined from a standard curve obtained by plotting known concentrations of the analyte against peak area ratios (analyte/internal standard peak response).
PK analyses of the plasma concentration-time relationships were performed with Phoenix software (version 6.2; Pharsight, USA). A noncompartmental analysis program, model 200, was used to calculate PK parameters. The maximum concentration of drug in plasma (Cmax), time to Cmax (Tmax), elimination half-life (t1/2), and area under the concentration-time curve (AUC) from time zero to infinity (AUC0–∞) were estimated. AUC was computed using the trapezoidal rule (linear up and log down), and the AUC0–∞ was considered only when the extrapolated AUC was not more than 20% of the original value. A minimum of three sample points in the terminal slope were used to calculate half-life.

The conditions of data set [4]: tested individually; SQ109 at 25 mg/kg of body weight, EMB at 100-mg/kg dose; cited from earlier work.

Values after ≈ are worked out from the molar mass of the structure shown. Where two headings read alike, the source gives them in different places.

In the case of `CC[C@@H](CO)NCCN[C@@H](CC)CO` [Ethambutol], the MIC against M. tuberculosis H37Rv [1] worked out at 19.6 µM (≈ 4.01 µg/mL). The “ΔLog10 CFU/ml at the MIC” value in the data set with M. tuberculosis H37Rv [2] was found to be 1.40 Log10 CFU/ml. Moreover, the AUC in data set [3] (BALB/c, plasma, oral, SQ109 25 mg/kg, EMB 100 mg/kg, in 3- and 4-drug combinations, read-out: observed AUC in combinations) lay within 4000 to 9900 ng·h/mL. The AUC(0-t) in data set [3] (BALB/c, plasma, 25 mg/kg, Group 5 triplet EMB 100/BDQ 25/SQ109 25 mg/kg oral, read-out: AUC0-24 in Triplet) is 4100 ± 1400 ng·h/mL; in data set [3] (BALB/c, plasma, 100 mg/kg, Group 8 triplet PA824 50/BDQ 25/EMB 100 mg/kg oral, read-out: AUC0-24 in Triplet), 9900 ± 1600 ng·h/mL; in data set [3] (BALB/c, plasma, 100 mg/kg, Ref. regimen triplet INH 30/RIF 10/EMB 100 mg/kg oral, read-out: AUC0-24 in Triplet) it was 7900 ± 2800 ng·h/mL; in data set [3] (BALB/c, plasma, 130 mg/kg, Group 9 triplet EMB 100/SQ109 25/LZD 130 mg/kg oral, read-out: AUC0-24 in Triplet), 9600 ± 1600 ng·h/mL; in data set [3] (BALB/c, plasma, 150 mg/kg, Group 5 quartet EMB 100/BDQ 25/SQ109 25/PZA 150 mg/kg oral, read-out: AUC0-24 in Quartet), 4000 ± 1100 ng·h/mL; in data set [3] (BALB/c, plasma, 150 mg/kg, Group 8 quartet PA824 50/BDQ 25/EMB 100/PZA 150 mg/kg oral, read-out: AUC0-24 in Quartet), 5700 ± 1100 ng·h/mL. Moreover, in data set [3] (BALB/c, plasma, 150 mg/kg, Ref. regimen quartet INH 30/RIF 10/EMB 100/PZA 150 mg/kg oral, read-out: AUC0-24 in Quartet), the AUC(0-t) was 6600 ± 1800 ng·h/mL. Further, the Cmax in data set [3] (BALB/c, plasma, 25 mg/kg, Group 5 triplet EMB 100/BDQ 25/SQ109 25 mg/kg oral, read-out: Cmax in Triplet) is 1300 ± 600 ng/mL; in data set [3] (BALB/c, plasma, 100 mg/kg, Group 8 triplet PA824 50/BDQ 25/EMB 100 mg/kg oral, read-out: Cmax in Triplet), 2700 ± 200 ng/mL; in data set [3] (BALB/c, plasma, 100 mg/kg, Ref. regimen triplet INH 30/RIF 10/EMB 100 mg/kg oral, read-out: Cmax in Triplet), 2200 ± 500 ng/mL; in data set [3] (BALB/c, plasma, 130 mg/kg, Group 9 triplet EMB 100/SQ109 25/LZD 130 mg/kg oral, read-out: Cmax in Triplet), 1100 ± 200 ng/mL; in data set [3] (BALB/c, plasma, 150 mg/kg, Group 5 quartet EMB 100/BDQ 25/SQ109 25/PZA 150 mg/kg oral, read-out: Cmax in Quartet) it was 1200 ± 500 ng/mL; in data set [3] (BALB/c, plasma, 150 mg/kg, Group 8 quartet PA824 50/BDQ 25/EMB 100/PZA 150 mg/kg oral, read-out: Cmax in Quartet) it was 1500 ± 300 ng/mL. Further, in data set [3] (BALB/c, plasma, 150 mg/kg, Ref. regimen quartet INH 30/RIF 10/EMB 100/PZA 150 mg/kg oral, read-out: Cmax in Quartet), the Cmax was 1700 ± 600 ng/mL. The “plasma exposure in combination compared with individual (reported) exposure” value in data set [3] (in vivo) was “lower”. In addition, in data set [4], the “reported AUC” value was 28000 ng·h/mL.
